Measured values: the supplement of paper PMC4862054

Columns and labels:
Conditions in all cases: incubation time: 72 h
[1] = test system: MDA-MB-468; test: normalised viability (% of control), CellTiter-Blue; higher = more viable cells (about 100 = DMSO control)
In short: (§1)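 Each entry is normalised viability at a single listed concentration within a series. It comes from breast cancer cell lines incubated 72 h with compound in 384-well plates, then measured with CellTiter-Blue fluorescence at 560/590 nm. Every plate was normalised between vehicle (100) and a positive kill control (0).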

[2] = test system: MDA-MB-436; test: as above
In short: as §1

[3] = test system: SK-BR-3; test: as above
In short: as §1

[4] = test system: MDA-MB-453; test: as above
In short: as §1

[5] = test system: CAL-51; test: as above
In short: as §1

[6] = test system: DU-4475; test: as above
In short: as §1

[7] = test system: CAL-148; test: as above
In short: as §1

[8] = test system: MFM-223; test: as above
In short: as §1

[9] = test system: BT-549; test: as above
In short: as §1

[10] = test system: HCC1143; test: as above
In short: as §1

[11] = test system: BT-474; test: as above
In short: as §1

[12] = test system: MDA-MB-231; test: as above
In short: as §1

[13] = test system: HCC1937; test: as above
In short: as §1

[14] = test system: HDQ-P1; test: as above
In short: as §1

[15] = test system: HCC1599; test: as above
In short: as §1

[16] = test system: Hs578T; test: as above
In short: as §1

[17] = test system: MDA-MB-468; test: normalised viability (% of control), CellTiter-Blue; higher = more viable cells (100 = DMSO, 0 = benzethonium chloride kill control)
Procedure: (§2)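 DSRT, CellTiter-Blue viability, 72 h incubation. Signal is normalised to DMSO and benzethonium chloride controls. Value is the normalised response at dose 1.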

[18] = test system: SK-BR-3; test: as above
Procedure: as §2

[19] = test system: MDA-MB-453; test: as above
Procedure: as §2

[20] = test system: CAL-51; test: as above
Procedure: as §2

[21] = test system: DU-4475; test: as above
Procedure: as §2

[22] = test system: CAL-148; test: as above
Procedure: as §2

[23] = test system: CAL-120; test: as above
Procedure: as §2

[24] = test system: MFM-223; test: as above
Procedure: as §2

[25] = test system: BT-549; test: as above
Procedure: as §2

[26] = test system: CAL-85-1; test: as above
Procedure: as §2

[27] = test system: HCC1143; test: as above
Procedure: as §2

[28] = test system: BT-474; test: as above
Procedure: as §2

[29] = test system: MDA-MB-231; test: as above
Procedure: as §2

[30] = test system: HCC1937; test: as above
Procedure: as §2

[31] = test system: HDQ-P1; test: as above
Procedure: as §2

[32] = test system: HCC1599; test: as above
Procedure: as §2

**Q.** `C[C@]12CC[C@H](O)CC1=CC[C@@H]1[C@@H]2CC[C@]2(C)C(c3cccnc3)=CC[C@@H]12` [Abiraterone] was tested. Which normalised viability ([1]; 50 nM) did it give?
**A.** 107%

**Q.** And the normalised viability ([2]; 50 nM)?
**A.** 126%

**Q.** And the normalised viability ([3]; 50 nM)?
**A.** 73.4%

**Q.** What about the normalised viability ([4]; 5 nM) of the same compound?
**A.** 91.6%

**Q.** What about the normalised viability ([5]; 5 nM) of the same compound?
**A.** 106%

**Q.** And the normalised viability ([6]; 5 nM)?
**A.** 94%

**Q.** And the normalised viability ([7]; 5 nM)?
**A.** 86.7%

**Q.** What about the normalised viability ([8]; 50 nM) of the same compound?
**A.** 98%

**Q.** And the normalised viability ([9]; 50 nM)?
**A.** 108%

**Q.** What about the normalised viability ([10]; 50 nM) of the same compound?
**A.** 75.2%

**Q.** And the normalised viability ([11]; 50 nM)?
**A.** 112%

**Q.** What about the normalised viability ([12]; 50 nM) of the same compound?
**A.** 95.6%

**Q.** And the normalised viability ([13]; 50 nM)?
**A.** 98.9%

**Q.** And the normalised viability ([14]; 5 nM)?
**A.** 109%

**Q.** What about the normalised viability ([15]; 50 nM) of the same compound?
**A.** 102%

**Q.** And the normalised viability ([16]; 50 nM)?
**A.** 91.7%

**Q.** And the normalised viability ([17]; 0.5 nM)?
**A.** 102%

**Q.** What about the normalised viability ([18]; 0.5 nM) of the same compound?
**A.** 96.1%

**Q.** And the normalised viability ([19]; 0.5 nM)?
**A.** 108%

**Q.** What about the normalised viability ([20]; 0.5 nM) of the same compound?
**A.** 97.6%

**Q.** What about the normalised viability ([21]; 0.5 nM) of the same compound?
**A.** 99.4%

**Q.** What about the normalised viability ([22]; 0.5 nM) of the same compound?
**A.** 103%

**Q.** And the normalised viability ([23]; 0.5 nM)?
**A.** 78.9%

**Q.** What about the normalised viability ([24]; 0.5 nM) of the same compound?
**A.** 90.2%

**Q.** What about the normalised viability ([25]; 0.5 nM) of the same compound?
**A.** 111%

**Q.** What about the normalised viability ([26]; 0.5 nM) of the same compound?
**A.** 82.8%

**Q.** What about the normalised viability ([27]; 0.5 nM) of the same compound?
**A.** 86.6%

**Q.** What about the normalised viability ([28]; 0.5 nM) of the same compound?
**A.** 86.1%

**Q.** And the normalised viability ([29]; 0.5 nM)?
**A.** 96%

**Q.** What about the normalised viability ([30]; 0.5 nM) of the same compound?
**A.** 99.8%

**Q.** And the normalised viability ([31]; 0.5 nM)?
**A.** 109%

**Q.** And the normalised viability ([32]; 0.5 nM)?
**A.** 102%

**Q.** Which results are given for `Cn1c(=O)n(-c2ccc(C(C)(C)C#N)cc2)c2c3cc(-c4cnc5ccccc5c4)ccc3ncc21` [NVP-BEZ235]?
**A.** normalised viability ([1]; 10 nM): 86.6%; normalised viability ([2]; 10 nM): 105%; normalised viability ([3]; 10 nM): 88.4%; normalised viability ([4]; 1 nM): 96.5%; normalised viability ([5]; 1 nM): 106%; normalised viability ([6]; 1 nM): 101%; normalised viability ([7]; 1 nM): 108%; normalised viability ([8]; 10 nM): 51.9%; normalised viability ([9]; 10 nM): 68.2%; normalised viability ([10]; 10 nM): 70.9%; normalised viability ([11]; 10 nM): 91.6%; normalised viability ([12]; 10 nM): 72.4%; normalised viability ([13]; 10 nM): 59.9%; normalised viability ([14]; 1 nM): 102%; normalised viability ([15]; 10 nM): 84.7%; normalised viability ([16]; 10 nM): 56.7%; normalised viability ([17]; 0.1 nM): 108%; normalised viability ([18]; 0.1 nM): 100%; normalised viability ([19]; 0.1 nM): 96.8%; normalised viability ([20]; 0.1 nM): 102%; normalised viability ([21]; 0.1 nM): 129%; normalised viability ([22]; 0.1 nM): 114%; normalised viability ([23]; 0.1 nM): 96.6%; normalised viability ([24]; 0.1 nM): 99.3%; normalised viability ([25]; 0.1 nM): 112%; normalised viability ([26]; 0.1 nM): 96.9%; normalised viability ([27]; 0.1 nM): 98.9%; normalised viability ([28]; 0.1 nM): 105%; normalised viability ([29]; 0.1 nM): 111%; normalised viability ([30]; 0.1 nM): 95.9%; normalised viability ([31]; 0.1 nM): 113%; normalised viability ([32]; 0.1 nM): 125%

**Q.** What does the source list for `CCCCCCCCc1ccc(CCC(N)(CO)CO)cc1` [Fingolimod]?
**A.** normalised viability ([1]; 100 nM): 101%; normalised viability ([2]; 100 nM): 101%; normalised viability ([3]; 100 nM): 85.8%; normalised viability ([4]; 10 nM): 108%; normalised viability ([5]; 10 nM): 117%; normalised viability ([6]; 10 nM): 113%; normalised viability ([7]; 10 nM): 87.3%; normalised viability ([8]; 100 nM): 98.6%; normalised viability ([9]; 100 nM): 117%; normalised viability ([10]; 100 nM): 106%; normalised viability ([11]; 100 nM): 119%; normalised viability ([12]; 100 nM): 89.3%; normalised viability ([13]; 100 nM): 99%; normalised viability ([14]; 10 nM): 119%; normalised viability ([15]; 100 nM): 93.9%; normalised viability ([16]; 100 nM): 97.1%; normalised viability ([17]; 1 nM): 106%; normalised viability ([18]; 1 nM): 102%; normalised viability ([19]; 1 nM): 94%; normalised viability ([20]; 1 nM): 117%; normalised viability ([21]; 1 nM): 122%; normalised viability ([22]; 1 nM): 96.8%; normalised viability ([23]; 1 nM): 82.3%; normalised viability ([24]; 1 nM): 94%; normalised viability ([25]; 1 nM): 106%; normalised viability ([26]; 1 nM): 85.8%; normalised viability ([27]; 1 nM): 92.5%; normalised viability ([28]; 1 nM): 97.7%; normalised viability ([29]; 1 nM): 95.6%; normalised viability ([30]; 1 nM): 96.5%; normalised viability ([31]; 1 nM): 130%; normalised viability ([32]; 1 nM): 105%

**Q.** Which results are given for `O=C(O)CCCc1ccc(N(CCCl)CCCl)cc1` [Chlorambucil]?
**A.** normalised viability ([1]; 100 nM): 99.8%; normalised viability ([2]; 100 nM): 95.8%; normalised viability ([3]; 100 nM): 97.8%; normalised viability ([4]; 10 nM): 106%; normalised viability ([5]; 10 nM): 107%; normalised viability ([6]; 10 nM): 109%; normalised viability ([7]; 10 nM): 100%; normalised viability ([8]; 100 nM): 95.5%; normalised viability ([9]; 100 nM): 100%; normalised viability ([10]; 100 nM): 104%; normalised viability ([11]; 100 nM): 115%; normalised viability ([12]; 100 nM): 103%; normalised viability ([13]; 100 nM): 87.9%; normalised viability ([14]; 10 nM): 112%; normalised viability ([15]; 100 nM): 132%; normalised viability ([16]; 100 nM): 106%; normalised viability ([17]; 1 nM): 95.2%; normalised viability ([18]; 1 nM): 101%; normalised viability ([19]; 1 nM): 109%; normalised viability ([20]; 1 nM): 111%; normalised viability ([21]; 1 nM): 102%; normalised viability ([22]; 1 nM): 113%; normalised viability ([23]; 1 nM): 96.6%; normalised viability ([24]; 1 nM): 94.3%; normalised viability ([25]; 1 nM): 96.7%; normalised viability ([26]; 1 nM): 97.4%; normalised viability ([27]; 1 nM): 105%; normalised viability ([28]; 1 nM): 89.7%; normalised viability ([29]; 1 nM): 106%; normalised viability ([30]; 1 nM): 97.6%; normalised viability ([31]; 1 nM): 111%; normalised viability ([32]; 1 nM): 117%
